One data set addresses T1, Papain (Carica papaya, UniProt P00784).
T1 construct: purchased Boehringer Mannheim AG
T1 sequence (P00784 134-345): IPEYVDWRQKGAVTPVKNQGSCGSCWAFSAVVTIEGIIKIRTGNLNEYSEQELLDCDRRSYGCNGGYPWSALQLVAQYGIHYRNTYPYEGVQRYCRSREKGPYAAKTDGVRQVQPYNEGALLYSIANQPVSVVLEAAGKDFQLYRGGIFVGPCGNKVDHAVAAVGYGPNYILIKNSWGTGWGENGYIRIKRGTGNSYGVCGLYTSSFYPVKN
The data set is described as follows: Papain inhibitory activity (casein hydrolysis). It is filed as biochemical. How it is done:
(§1) The 0.2 ml of a solution of papain (300 μg/ml, Boeringer Mannheim AG), 0.25 ml of 40 mM cysteine solution dissolved in 5 mM EDTA solution adjusted pH to 6.8 with sodium hydroxide and 0.55 ml of the 50 mM phosphate buffer (pH 6.8) with or without inhibitor were mixed and incubated at 40° C. for 10 min., followed by adding 4 ml of 1.5% casein solution dissolved in a 50 mM phosphate buffer (pH 6.8) to carry out a reaction at 40° C. for 15 min. Then, 2 ml of 1.1M trichloroacetic acid is added to terminate the reaction. After being left to stand at room temperature for one hour, the reaction mixture is centrifuged at 3500 rpm for 10 minutes and absorbance (S) of the trichloroacetic acid soluble fraction at 280 mμ is measured. Similarly, absorbance (B) at 280 mμ is measured when no inhibitors are added. The percent inhibition was calculated by the following formula: […]
(§2) The amount of inhibitor for 50% inhibition was expressed as IC50.

Another data set is described as follows: Stability. To be noted: stable at a pH of.
For data set [1], the system named is production of IgE antibody. The data set is described as follows: Activity on the production of IgE antibody in mice (PCA reaction). Format: in vivo, BDF1 strain male mice. Particulars: for IgE antibody titers (PCA antibody titers), individual mice: 200 mg/Kg ip 2 hours before immunization with egg albumin + aluminum hydroxide, blood after 14 days, reciprocal of maximum dilution with positive blueing in rats; for Effect on production of IgE antibody (in words): mice, 200 mg/Kg ip. As to the method: Activity on the production of IgE antibody was examined by the following method.
Estatin A or Estatin B dissolved in physiological saline were administered ip to BDF1 strain male mice weighing 18-22 g (one group 5 mice) at a dose of 200 mg/Kg. Control group (10 mice) received only physiological saline. After 2 hours from the administration, 4 mg of aluminum hydroxide together with 10 μg of egg albumin was administered ip to immunize them. After 14 days from the immunization, blood was collected and IgE antibody titer was assayed by PCA reaction (See "International Archives of Allergy and Applied Immunology" Vol. 48, Page 16, 1975.).
That is, serum samples were serially diluted and injected intradermally into the back of Wistar strain male rats weighing 200-250 g. After 48 hours, 1 ml of 1% Evans blue in physiological saline containing 2 mg of egg albumin was administered iv and rats were killed 30 min. later, and blueing of saline were observed. […] The results are shown below. ______________________________________ PCA Antibody TITERS Test drugs IgE antibody titers ______________________________________ Estatin A <100 <100 <100 <100 <100 Estatin B <100 <100 <100 <100 100 Control 400 800 800 800 800 800 1600 1600 1600 3200 ______________________________________

Another data set has as its system mice. The experiment in a line: Acute toxicity. Format: in vivo. Particulars: ip, 400 mg/Kg.
In the next data set the test system is Ficin. The data set is described as follows: Ficin inhibitory activity (casein hydrolysis). It is filed as biochemical. To be noted: enzyme 60 μg protein; substrate casein. As to the method:
as §1, §2
(§3) Inhibitory activities against ficin (protein amount: 60 μg, manufactured by Boehringer Mannheim AG) and bromelain (protein content: 100 μg, manufactured by Boehringer Mannheim AG) are also measured by the similar method.

Data set [2] concerns production of IgG antibody. The data set is described as follows: Activity on the production of IgG antibody in mice (passive hemagglutination test). Format: in vivo, BDF1 strain male mice. To be noted: for IgG antibody titers, individual mice: 200 mg/Kg ip 2 hours before immunization with egg albumin + Freund complete adjuvant, blood after 2 weeks, passive hemagglutination; for Effect on production of IgG antibody (in words): mice, 200 mg/Kg ip. As to the method:
Activity on the production of IgG antibody was examined by the following method.
Estatin A or Estatin B were administered ip to BDF1 strain male mice weighing 18-22 g (one group 5 mice) at a dose of 200 mg/Kg. Control group (10 mice) received only physiological saline.
After 2 hours from the administration each mouse was immunized by intradermal injection with 0.2 mg/0.1 ml of egg albumin together with equal volume of Freund complete adjuvant into the 2 separate sites of the back of the mice. After 2 weeks blood was collected and antibody titers were determined by passive hemagglutination test using glutalaldehyde as coupling reajent. The results are shown below. ______________________________________ Test drugs IgG antibody titers ______________________________________ Estatin A 12800, 6450, 25600 12800, 12800 Estatin B 6400, 25600, 12800 25000, 12800 Control 12800, 25600, 25600, 12800, 6450 12800, 12800, 12800, 12800, 12800 ______________________________________

In the next data set the target is T2, Pepsin (Sus scrofa, UniProt P00791).
T2 construct: purchased PL Biochemical Co
The data set is described as follows: Pepsin inhibitory activity (casein hydrolysis). Format: biochemical. An excerpt: (§4) The enzyme reactions were all measured according to the prescribed methods.
(§5) (α-chymotrypsin and pepsin used are those manufactured by PL Biochemical Co., and trypsin is that manufactured by Wako Junyaku Co.)

A further data set has as its target T3, α-Chymotrypsin (Bos taurus, UniProt P00766).
T3 construct: purchased PL Biochemical Co
The data set is described as follows: α-Chymotrypsin inhibitory activity (casein hydrolysis). Format: biochemical.
Description: as §4, §5

Another data set relates to Trypsin. The experiment in a line: Trypsin inhibitory activity (casein hydrolysis). It is filed as biochemical. To be noted: enzyme 1000 μg protein; substrate casein.
Description: as §4, §5

A further data set deals with T4, Bromelain (Ananas comosus, UniProt P14518).
T4 construct: purchased Boehringer Mannheim AG
T4 sequence (P14518 1-212): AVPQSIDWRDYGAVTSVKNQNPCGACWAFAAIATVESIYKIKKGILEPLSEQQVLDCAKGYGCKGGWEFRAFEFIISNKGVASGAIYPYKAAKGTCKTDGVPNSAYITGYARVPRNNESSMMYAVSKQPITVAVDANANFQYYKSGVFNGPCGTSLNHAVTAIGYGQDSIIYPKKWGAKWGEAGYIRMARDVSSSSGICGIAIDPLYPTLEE
The experiment in a line: Bromelain inhibitory activity (casein hydrolysis). Format: biochemical. How it is done:
as §1, §2, §3

The next data set can be described thus: Solubility. Format: physicochemical. An excerpt: Insoluble in and pyridine.

pIC50: −log10 of the molar value. Several values for one entry are separate records, joined by “and”; a condition that tells them apart may be missing. Equal values may be shown once. Read-outs that look alike come from different tables or passages of the source.

T2 sequence (P00791 60-385): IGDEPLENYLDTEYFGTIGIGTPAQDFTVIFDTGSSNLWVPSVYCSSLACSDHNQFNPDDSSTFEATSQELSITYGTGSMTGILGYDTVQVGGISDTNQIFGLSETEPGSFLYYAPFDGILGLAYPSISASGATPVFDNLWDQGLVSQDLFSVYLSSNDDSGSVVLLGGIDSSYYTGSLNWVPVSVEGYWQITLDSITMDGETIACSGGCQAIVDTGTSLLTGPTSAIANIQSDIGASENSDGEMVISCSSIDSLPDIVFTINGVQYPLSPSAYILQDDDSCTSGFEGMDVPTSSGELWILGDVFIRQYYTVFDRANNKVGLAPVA

Consider `N=C(N)NCCCCNC(=O)[C@H](Cc1ccccc1)NC(=O)C1OC1C(=O)O` (mixture of isomers) [N-[N-(D- and L-3-trans-carboxyoxiran-2-carbonyl-L-phenylalanyl]agmatine], for which the IC50 on Papain (enzyme 60 μg protein, substrate casein, read-out: IC50 concentration, Papain (converted)) was 74.1 nM.

Take `N=C(N)NCCCCNC(=O)[C@H](Cc1ccccc1)NC(=O)[C@H]1O[C@@H]1C(=O)O` [Estatin A, N-[N-(L-3-trans-carboxyoxiran-2-carbonyl)-L-phenylalanyl]agmatine]: the “Stability: pH at which stable” value in “Stability” was 2-9. In data set [1], the “IgE antibody titers (PCA antibody titers), individual mice” value is recorded as < 100 and the “Effect on production of IgE antibody (in words)” value is “inhibit the production of IgE antibody”. In the data set on mice, the Acute toxicity entry is “no toxic effect”. Also, the “IC50 concentration, Ficin” value in the data set on Ficin was 0.039 µg/mL. Moreover, in [2], the “IgG antibody titers, individual mice” value is 12800 (3×) and 6450 and 25600; the “Effect on production of IgG antibody (in words)” value is reported as “do not inhibit the production of IgG antibody”. In addition, the pIC50 on Pepsin (enzyme 100 μg protein, substrate casein, read-out: IC50 concentration, Pepsin) is < 3.89. Moreover, on α-Chymotrypsin (enzyme 200 μg protein, substrate casein, read-out: IC50 concentration, α-Chymotrypsin), the pIC50 was < 3.89. Besides, in the data set on Trypsin, the “IC50 concentration, Trypsin” value is > 50 µg/mL. Besides, the IC50 on Bromelain (enzyme 100 μg protein, substrate casein, read-out: IC50 concentration, Bromelain (converted)) is 370 nM. At Papain, this compound had a pIC50 of 7.18. Moreover, in “Solubility”, the “Solubility in benzene, chloroform, ethyl acetate and petroleum ether” value was “Insoluble”; the “Solubility in water, acetic acid, dimethyl sulfoxide and pyridine” value was “Soluble”.

Take `N=C(N)NCCCCNC(=O)[C@H](Cc1ccc(O)cc1)NC(=O)[C@H]1O[C@@H]1C(=O)O` [Estatin B, N-[N-(L-3-trans-carboxyoxiran-2-carbonyl)-L-tyrosyl]agmatine]: in data set [1], the “IgE antibody titers (PCA antibody titers), individual mice” value is < 100 (4×) and 100; the “Effect on production of IgE antibody (in words)” value is on record as “inhibit the production of IgE antibody”. For the same compound, the Acute toxicity entry with mice is listed as “no toxic effect”. Further, in the data set with Ficin, the “IC50 concentration, Ficin” value stood at 0.041 µg/mL. In [2], the “IgG antibody titers, individual mice” value is 6400 and 25600 and 12800 (2×) and 25000; the “Effect on production of IgG antibody (in words)” value is reported as “do not inhibit the production of IgG antibody”. Also, the pIC50 against Pepsin is < 3.91. For the same compound, the pIC50 on α-Chymotrypsin was < 3.91. The “IC50 concentration, Trypsin” value in the data set with Trypsin is > 50 µg/mL. This compound had a pIC50 at Bromelain of 6.45. On Papain, this compound gave a pIC50 of 7.18. Further, in the data set “Solubility”, the “Solubility in benzene, chloroform, ethyl acetate and petroleum ether” value was “Insoluble”; the “Solubility in water, acetic acid, dimethyl sulfoxide and pyridine” value is reported as “Soluble”.

For the origin of these results see US4732910A, “Enzyme Inhibiting substance” (Toyo Jozo Co, Ltd., priority 1985, dated 1988).
